Assay results reported in the supplement of paper PMC10307832.

What was measured:
Assay in all cases: relative viability (nuclei count vs DMSO), 5 days (fraction); higher = more cells survive
OSI-027 + Dasatinib = compound: COc1cccc2cc(-c3nc([C@H]4CC[C@H](C(=O)O)CC4)n4ncnc(N)c34)[nH]c12 [OSI-027] + Cc1nc(Nc2ncc(C(=O)Nc3c(C)cccc3Cl)s2)cc(N2CCN(CCO)CC2)n1 [Dasatinib] (partner 0.075 µM)
How it was run: (§1)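 Lung cancer cell lines were pin-tool dosed in 1536-well plates on the day after seeding, with either a lone drug or a fixed anchor-drug dose plus five library-drug doses (not always all listed) in √10 steps. Nuclei were counted on 4× images after 5 days. Relative viability is the ratio of treated-well to vehicle-well nuclei counts, with each value a median of duplicate plates.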

Alpelisib + Palbociclib = compound: Cc1nc(NC(=O)N2CCC[C@H]2C(N)=O)sc1-c1ccnc(C(C)(C)C(F)(F)F)c1 [Alpelisib] + CC(=O)c1c(C)c2cnc(Nc3ccc(N4CCNCC4)cn3)nc2n(C2CCCC2)c1=O [Palbociclib] (partner 0.5 µM)
How it was run: as §1

Alpelisib + Phenformin = compound: Cc1nc(NC(=O)N2CCC[C@H]2C(N)=O)sc1-c1ccnc(C(C)(C)C(F)(F)F)c1 [Alpelisib] + N=C(N)NC(=N)NCCc1ccccc1 [Phenformin] (partner 250 µM)
How it was run: as §1

OSI-027 + Navitoclax = compound: COc1cccc2cc(-c3nc([C@H]4CC[C@H](C(=O)O)CC4)n4ncnc(N)c34)[nH]c12 [OSI-027] + CC1(C)CCC(c2ccc(Cl)cc2)=C(CN2CCN(c3ccc(C(=O)NS(=O)(=O)c4ccc(N[C@H](CCN5CCOCC5)CSc5ccccc5)c(S(=O)(=O)C(F)(F)F)c4)cc3)CC2)C1 [Navitoclax] (partner 0.5 µM)
How it was run: as §1

Cell Line | relative viability (OSI-027 + Dasatinib; first compound 0.01 µM) | relative viability (OSI-027 + Dasatinib; first compound 0.03162 µM) | relative viability (OSI-027 + Dasatinib; first compound 0.1 µM) | relative viability (OSI-027 + Dasatinib; first compound 0.3162 µM) | relative viability (OSI-027 + Dasatinib; first compound 1 µM) | relative viability (Alpelisib + Palbociclib; first compound 0.04 µM) | relative viability (Alpelisib + Palbociclib; first compound 0.1265 µM) | relative viability (Alpelisib + Palbociclib; first compound 0.4 µM) | relative viability (Alpelisib + Palbociclib; first compound 1.265 µM) | relative viability (Alpelisib + Palbociclib; first compound 4 µM) | relative viability (Alpelisib + Phenformin; first compound 0.04 µM) | relative viability (Alpelisib + Phenformin; first compound 0.1265 µM) | relative viability (Alpelisib + Phenformin; first compound 0.4 µM) | relative viability (Alpelisib + Phenformin; first compound 1.265 µM) | relative viability (Alpelisib + Phenformin; first compound 4 µM) | relative viability (OSI-027 + Navitoclax; first compound 0.01 µM) | relative viability (OSI-027 + Navitoclax; first compound 0.03162 µM) | relative viability (OSI-027 + Navitoclax; first compound 0.1 µM) | relative viability (OSI-027 + Navitoclax; first compound 0.3162 µM) | relative viability (OSI-027 + Navitoclax; first compound 1 µM)
201T | 0.594 | 0.567 | 0.588 | 0.504 | 0.398 | 0.374 | 0.335 | 0.357 | 0.315 | 0.29 | 0.437 | 0.485 | 0.428 | 0.348 | 0.349 | 1.25 | 1.24 | 1.2 | 1.22 | 1.13
A549 | – | – | – | – | – | – | – | – | – | – | 0.147 | 0.21 | 0.172 | 0.16 | 0.115 | 1.16 | 1.24 | 1.01 | 0.971 | 0.319
A-427 | 0.679 | 0.663 | 0.573 | 0.391 | 0.3 | 0.5 | 0.507 | 0.521 | 0.493 | 0.437 | 0.354 | 0.212 | 0.329 | 0.26 | 0.243 | 0.974 | 0.873 | 0.837 | 0.603 | 0.696
ABC-1 | 0.656 | 0.516 | 0.384 | 0.486 | 0.216 | 0.653 | 0.611 | 0.732 | 0.385 | 0.454 | 0.256 | 0.252 | 0.211 | 0.233 | 0.222 | – | – | – | – | –
BEN | 0.304 | 0.567 | 0.273 | 0.218 | 0.169 | 0.485 | 0.504 | 0.516 | 0.439 | 0.447 | 0.262 | 0.239 | 0.267 | 0.296 | 0.281 | 0.0799 | 0.0753 | 0.0684 | 0.0639 | 0.0589
CAL-12T | 0.4 | 0.376 | 0.367 | 0.36 | 0.148 | 0.413 | 0.38 | 0.647 | 0.415 | 0.355 | 0.545 | 0.593 | 0.699 | 0.543 | 0.494 | 1.36 | 1.18 | 1.3 | 1.08 | 0.5
COR-L23 | 0.513 | 0.422 | 0.424 | 0.386 | 0.208 | 0.271 | 0.241 | 0.253 | 0.215 | 0.212 | 0.388 | 0.414 | 0.49 | 0.402 | 0.36 | 0.988 | 0.782 | 0.938 | 0.923 | 0.36
COR-L 105 | 0.322 | 0.328 | 0.299 | 0.236 | 0.243 | 0.394 | 0.439 | 0.414 | 0.367 | 0.364 | 0.446 | 0.593 | 0.669 | 0.416 | 0.415 | 0.899 | 0.782 | 0.886 | 0.636 | 0.429
Calu-6 | – | – | – | – | – | – | – | – | – | – | – | – | – | – | – | 0.78 | 0.897 | 0.752 | 0.782 | 0.493
